Data on 15 molecules can be found in ChEMBL document CHEMBL1201862, “PubChem BioAssay data set” (2004).

Calls of active or inactive are those of the source. Where only a bound is given, the exact number is not on record here.

Series [1] can be described thus: HEK-293T cell viability reduction – luminescence, B-cell screen hits, cytotoxicity control for BCR NF-kB inhibitor project, dose response (AID 489021).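 Also: HEK-293T cells carrying an NF-kB luciferase reporter; cells exposed to compound for about 14 hours before viability readout.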 The class given is functional, cell-based.
A short description of series [2]: HepG2 cell cytotoxicity, dose response, cytotoxicity control for non-replicating M. tuberculosis project (AID 489018). It counts as functional. Particulars: Mycobacterium tuberculosis.
The nature of series [3]: THP-1 cell cytotoxicity, dose response, cytotoxicity control for non-replicating M. tuberculosis project (AID 489025). It counts as functional.
Series [4] has as its system Streptococcus sp. 'group A'. Briefly: Streptococcus pyogenes SK(-)GAS viability under kanamycin – luminescence, BacTiterGlo, confirmation, counter-screen for streptokinase expression inhibitor project, dose response (AID 1900). It counts as functional, organism-based. For orientation: The purpose of a counterscreen is to sort out artefacts and off-target activity.
A short description of another series: cells. The class given is functional.
The next series has as its system Streptococcus. Briefly: GAS UMAA2166 growth inhibition – luminescence, BacTiterGlo, counter-screen for streptokinase expression inhibitor project, dose response (AID 1915).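 Also: potency for reduction of bacterial viability or growth.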 The class given is functional, organism-based.
Series [5] in a line: Vero E6 cell cytotoxicity, dose response, cytotoxicity control for non-replicating M. tuberculosis project, secondary assay (AID 492998). It counts as functional, VeroE6. As to conditions: Vero C1008.
For series [6], the system named is HEK293. Briefly: cells. As to conditions: Homo sapiens.
Series [7] deals with T1, RNA-binding protein pos-1 (Caenorhabditis elegans, UniProt G5EF15).
T1 sequence (G5EF15 whole entry): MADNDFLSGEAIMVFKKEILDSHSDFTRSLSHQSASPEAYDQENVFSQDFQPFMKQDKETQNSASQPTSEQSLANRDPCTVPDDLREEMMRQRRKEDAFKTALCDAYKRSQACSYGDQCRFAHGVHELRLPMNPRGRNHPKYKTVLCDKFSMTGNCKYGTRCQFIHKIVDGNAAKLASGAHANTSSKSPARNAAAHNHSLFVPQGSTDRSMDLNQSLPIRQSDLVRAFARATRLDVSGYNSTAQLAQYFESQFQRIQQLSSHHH
Briefly: disruptors of C. elegans POS-1 RNA interaction – biochemical, fluorescence polarization, dose response (AID 1964). (In general: In fluorescence polarisation assays a small probe gives low polarisation when free and higher when bound to something large.)

The target in series [8] is T2, Zinc finger protein mex-5 (Caenorhabditis elegans, UniProt Q9XUB2).
T2 sequence (Q9XUB2 whole entry): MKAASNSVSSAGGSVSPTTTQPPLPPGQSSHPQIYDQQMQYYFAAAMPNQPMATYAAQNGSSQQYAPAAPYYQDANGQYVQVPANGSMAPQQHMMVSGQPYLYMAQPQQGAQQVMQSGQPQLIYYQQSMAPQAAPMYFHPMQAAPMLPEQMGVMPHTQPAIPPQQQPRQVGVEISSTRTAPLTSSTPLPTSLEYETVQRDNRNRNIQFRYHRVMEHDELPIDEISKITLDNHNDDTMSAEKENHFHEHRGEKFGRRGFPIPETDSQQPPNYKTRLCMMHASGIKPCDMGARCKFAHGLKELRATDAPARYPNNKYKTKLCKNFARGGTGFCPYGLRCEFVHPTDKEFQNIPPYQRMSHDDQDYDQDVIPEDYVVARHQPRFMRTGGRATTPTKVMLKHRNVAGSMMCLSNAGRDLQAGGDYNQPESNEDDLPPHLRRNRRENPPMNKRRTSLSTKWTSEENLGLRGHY
Briefly: potency of MEX-5 RNA-binding blockers – biochemical, C. elegans, fluorescence polarization, dose response (AID 1960).

Series [9] can be described thus: NIH-3T3 fibroblast cytotoxicity, dose response, cytotoxicity control, cell-based, fluorescence, Alamar Blue, secondary assay (AID 2327).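 Also: NIH-3T3 mouse fibroblasts cultured with fluconazole at 8 µg/mL.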 The class given is functional. In general terms: The colour change of resazurin is a common sign of viable cells or microbes.
Series [10] in a line: fluconazole-exposed Candida albicans growth modulators – fluorescence, retest, confirmation (AID 2467). The class given is functional, cell-based.
The target of the next series is T3, fMet-Leu-Phe receptor (Homo sapiens, UniProt P21462).
T3 sequence (P21462 whole entry): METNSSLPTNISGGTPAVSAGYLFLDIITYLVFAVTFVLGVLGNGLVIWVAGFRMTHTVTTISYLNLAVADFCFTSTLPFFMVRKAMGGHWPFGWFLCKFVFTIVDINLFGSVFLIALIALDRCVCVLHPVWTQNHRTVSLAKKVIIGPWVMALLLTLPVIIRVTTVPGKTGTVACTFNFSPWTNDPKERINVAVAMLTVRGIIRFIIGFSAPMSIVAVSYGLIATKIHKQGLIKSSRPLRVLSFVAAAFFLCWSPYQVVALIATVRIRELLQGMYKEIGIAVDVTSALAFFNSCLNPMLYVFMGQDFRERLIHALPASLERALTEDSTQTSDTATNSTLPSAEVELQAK
Briefly: formyl peptide receptor binders – dose response (AID 519). The class given is functional.

In series [11] the test system is HEK293. Briefly: cells. As to conditions: Homo sapiens. The source holds these as a separate data set.
Series [12] concerns the target T4, Alkaline phosphatase, tissue-nonspecific isozyme (Homo sapiens, UniProt P05186).
T4 sequence (P05186 whole entry): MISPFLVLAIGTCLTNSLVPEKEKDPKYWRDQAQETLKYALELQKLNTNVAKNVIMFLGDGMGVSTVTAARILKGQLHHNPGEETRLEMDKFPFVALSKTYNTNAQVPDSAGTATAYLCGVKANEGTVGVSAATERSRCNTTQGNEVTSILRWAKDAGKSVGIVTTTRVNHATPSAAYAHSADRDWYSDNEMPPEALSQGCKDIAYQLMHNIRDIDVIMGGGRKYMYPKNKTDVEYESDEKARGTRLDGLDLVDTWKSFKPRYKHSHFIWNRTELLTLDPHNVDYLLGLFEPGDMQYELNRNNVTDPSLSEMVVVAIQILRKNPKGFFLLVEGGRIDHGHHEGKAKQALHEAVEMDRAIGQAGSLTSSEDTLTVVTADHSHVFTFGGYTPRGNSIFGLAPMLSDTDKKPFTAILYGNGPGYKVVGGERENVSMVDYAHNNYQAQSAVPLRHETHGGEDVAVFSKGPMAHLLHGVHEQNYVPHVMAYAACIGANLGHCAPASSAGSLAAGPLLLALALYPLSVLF
Briefly: potency against alkaline phosphatase TNAP – biochemical, luminescent, dose response, SAR follow-up (AID 1056).

In series [13] the target is Glyceraldehyde-3-phosphate dehydrogenase (Homo sapiens, UniProt P04406).
Chain of Glyceraldehyde-3-phosphate dehydrogenase (P04406 whole entry): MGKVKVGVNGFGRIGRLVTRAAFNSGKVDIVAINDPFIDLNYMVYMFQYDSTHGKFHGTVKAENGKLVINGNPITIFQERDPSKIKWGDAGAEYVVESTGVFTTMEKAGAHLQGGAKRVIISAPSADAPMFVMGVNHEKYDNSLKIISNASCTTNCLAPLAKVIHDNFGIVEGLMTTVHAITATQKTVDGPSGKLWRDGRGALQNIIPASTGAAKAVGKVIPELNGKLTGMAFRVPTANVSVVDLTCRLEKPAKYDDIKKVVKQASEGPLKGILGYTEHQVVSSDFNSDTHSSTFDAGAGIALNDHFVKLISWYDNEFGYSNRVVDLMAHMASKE
Series [14] deals with T5, Cytochrome P450 2C9 (Homo sapiens, UniProt P11712). As to conditions: Potency.
T5 sequence (P11712 whole entry): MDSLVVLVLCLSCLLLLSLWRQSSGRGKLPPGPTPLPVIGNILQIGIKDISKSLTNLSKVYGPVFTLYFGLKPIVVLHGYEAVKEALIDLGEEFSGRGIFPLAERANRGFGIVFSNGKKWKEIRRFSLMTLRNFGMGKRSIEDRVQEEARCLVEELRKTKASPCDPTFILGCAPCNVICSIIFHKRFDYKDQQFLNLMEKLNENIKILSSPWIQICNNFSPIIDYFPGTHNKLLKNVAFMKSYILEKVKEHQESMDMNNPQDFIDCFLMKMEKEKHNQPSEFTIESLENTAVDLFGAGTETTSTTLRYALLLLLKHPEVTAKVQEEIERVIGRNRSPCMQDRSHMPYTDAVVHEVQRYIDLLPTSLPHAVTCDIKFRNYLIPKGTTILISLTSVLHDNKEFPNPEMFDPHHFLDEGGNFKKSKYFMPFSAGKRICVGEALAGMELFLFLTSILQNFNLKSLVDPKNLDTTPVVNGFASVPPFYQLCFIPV
The target in a further series is T6, Estrogen receptor (Homo sapiens, UniProt P03372).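 Also: potency for inhibiting coactivator peptide recruitment to the receptor.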
T6 sequence (P03372 whole entry): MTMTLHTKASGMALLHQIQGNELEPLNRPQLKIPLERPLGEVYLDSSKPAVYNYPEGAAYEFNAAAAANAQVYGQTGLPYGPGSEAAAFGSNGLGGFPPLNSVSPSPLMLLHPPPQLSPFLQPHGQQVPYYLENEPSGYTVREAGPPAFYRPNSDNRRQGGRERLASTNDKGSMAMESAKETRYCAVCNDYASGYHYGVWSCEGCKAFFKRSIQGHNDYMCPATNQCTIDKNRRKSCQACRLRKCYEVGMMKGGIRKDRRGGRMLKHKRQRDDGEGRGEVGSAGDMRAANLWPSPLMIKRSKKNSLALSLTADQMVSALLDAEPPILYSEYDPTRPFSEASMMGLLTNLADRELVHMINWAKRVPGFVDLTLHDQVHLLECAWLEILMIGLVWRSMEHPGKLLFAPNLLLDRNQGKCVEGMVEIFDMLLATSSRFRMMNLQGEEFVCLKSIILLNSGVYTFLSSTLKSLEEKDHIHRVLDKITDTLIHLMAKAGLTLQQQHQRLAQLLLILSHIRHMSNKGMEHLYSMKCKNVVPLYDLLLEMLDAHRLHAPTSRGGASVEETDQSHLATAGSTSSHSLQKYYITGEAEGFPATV

The nature of series [15]: HEK-293T viability loss after treatment – luminescence, T-cell screen hits, cytotoxicity control for TCR NF-kB inhibitor project, dose response (AID 489026).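 Also: cells exposed to compound about 14 hours before the viability readout.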 It counts as functional, cell-based.
Series [16] deals with Voltage-dependent T-type calcium channel subunit alpha-1H (Homo sapiens, UniProt O95180). The class given is functional.
Chain of Voltage-dependent T-type calcium channel subunit alpha-1H (O95180 whole entry): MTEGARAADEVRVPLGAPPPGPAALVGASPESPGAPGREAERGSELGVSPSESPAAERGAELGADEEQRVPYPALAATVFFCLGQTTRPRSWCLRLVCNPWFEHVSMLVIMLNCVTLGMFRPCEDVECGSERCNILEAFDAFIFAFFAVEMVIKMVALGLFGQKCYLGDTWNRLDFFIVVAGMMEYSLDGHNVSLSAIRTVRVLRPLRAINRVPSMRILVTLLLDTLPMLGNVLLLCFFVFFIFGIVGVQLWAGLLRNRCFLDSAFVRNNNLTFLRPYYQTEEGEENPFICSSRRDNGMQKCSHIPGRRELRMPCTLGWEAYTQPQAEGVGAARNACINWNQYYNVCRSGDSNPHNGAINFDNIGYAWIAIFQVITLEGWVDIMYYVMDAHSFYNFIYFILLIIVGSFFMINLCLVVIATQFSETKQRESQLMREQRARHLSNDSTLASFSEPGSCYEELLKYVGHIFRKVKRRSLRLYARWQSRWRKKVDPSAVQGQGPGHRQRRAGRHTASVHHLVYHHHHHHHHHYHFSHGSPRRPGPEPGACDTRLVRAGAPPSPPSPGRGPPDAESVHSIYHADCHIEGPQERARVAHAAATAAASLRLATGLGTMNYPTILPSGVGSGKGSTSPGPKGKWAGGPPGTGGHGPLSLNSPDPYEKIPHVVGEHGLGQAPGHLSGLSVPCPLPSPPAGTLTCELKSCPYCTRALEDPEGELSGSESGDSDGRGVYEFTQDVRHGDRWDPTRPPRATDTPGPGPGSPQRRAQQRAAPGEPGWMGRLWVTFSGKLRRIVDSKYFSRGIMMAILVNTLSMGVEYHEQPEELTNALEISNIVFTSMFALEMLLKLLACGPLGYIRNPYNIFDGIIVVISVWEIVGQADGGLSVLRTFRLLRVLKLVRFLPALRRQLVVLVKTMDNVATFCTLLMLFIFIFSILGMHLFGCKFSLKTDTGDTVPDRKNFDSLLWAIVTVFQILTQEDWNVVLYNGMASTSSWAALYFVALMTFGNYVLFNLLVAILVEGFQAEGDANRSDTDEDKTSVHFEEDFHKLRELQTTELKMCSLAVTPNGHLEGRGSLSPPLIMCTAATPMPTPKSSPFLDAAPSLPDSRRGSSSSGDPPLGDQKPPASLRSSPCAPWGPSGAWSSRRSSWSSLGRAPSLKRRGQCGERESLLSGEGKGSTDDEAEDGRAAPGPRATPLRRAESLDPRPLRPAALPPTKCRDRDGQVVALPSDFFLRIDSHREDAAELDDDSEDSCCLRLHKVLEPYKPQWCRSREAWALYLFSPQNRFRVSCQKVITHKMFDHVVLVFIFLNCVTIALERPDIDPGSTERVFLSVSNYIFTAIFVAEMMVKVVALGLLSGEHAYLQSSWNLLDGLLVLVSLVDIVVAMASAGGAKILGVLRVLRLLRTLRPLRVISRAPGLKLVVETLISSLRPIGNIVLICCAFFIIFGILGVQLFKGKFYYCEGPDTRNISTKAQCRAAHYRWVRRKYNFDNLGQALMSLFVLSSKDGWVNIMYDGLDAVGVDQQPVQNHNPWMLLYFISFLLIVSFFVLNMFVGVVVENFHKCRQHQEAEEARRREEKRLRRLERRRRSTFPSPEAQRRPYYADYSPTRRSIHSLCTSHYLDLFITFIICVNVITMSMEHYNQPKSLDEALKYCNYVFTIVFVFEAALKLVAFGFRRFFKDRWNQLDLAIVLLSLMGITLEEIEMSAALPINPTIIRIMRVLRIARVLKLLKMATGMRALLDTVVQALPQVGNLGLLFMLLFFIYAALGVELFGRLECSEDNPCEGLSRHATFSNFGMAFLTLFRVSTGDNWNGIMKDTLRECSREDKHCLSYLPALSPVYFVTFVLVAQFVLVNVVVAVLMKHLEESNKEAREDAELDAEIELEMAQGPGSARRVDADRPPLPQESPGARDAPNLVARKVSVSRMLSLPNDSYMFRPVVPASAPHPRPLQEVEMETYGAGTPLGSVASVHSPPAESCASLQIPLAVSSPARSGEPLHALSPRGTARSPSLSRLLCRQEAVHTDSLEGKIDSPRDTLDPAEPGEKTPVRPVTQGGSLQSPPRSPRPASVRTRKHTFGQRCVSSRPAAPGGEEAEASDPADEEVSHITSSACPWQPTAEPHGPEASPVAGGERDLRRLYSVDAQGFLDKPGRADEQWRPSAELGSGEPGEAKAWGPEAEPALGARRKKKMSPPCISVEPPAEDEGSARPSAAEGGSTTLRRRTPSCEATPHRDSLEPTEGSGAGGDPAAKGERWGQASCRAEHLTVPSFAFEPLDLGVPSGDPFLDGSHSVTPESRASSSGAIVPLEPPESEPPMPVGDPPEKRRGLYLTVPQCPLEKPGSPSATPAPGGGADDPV
The nature of series [17]: Trypanosoma cruzi growth suppression in host cells – NIH3T3 host cells, beta-gal luminescence, confirmation (AID 2044).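 Also: intracellular parasites grown in NIH/3T3 mouse fibroblasts as host cells; luminescent beta-galactosidase reporter signal from transgenic T. cruzi replicating inside host cells; inhibitors lower the luminescence signal.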 It counts as functional, cell-based.
A short description of series [18]: NIH3T3 cell viability loss – ATP luminescence, mouse fibroblasts, counter-screen, dose response (AID 2010).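 Also: cells exposed to compound for about 90 hours before reading.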 It counts as functional, cell-based.
For the next series, the target named is Cytochrome P450 2D6 (Homo sapiens, UniProt P10635).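 Also: CYP2D6 member of a cytochrome P450 panel assay.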
Chain of Cytochrome P450 2D6 (P10635 whole entry): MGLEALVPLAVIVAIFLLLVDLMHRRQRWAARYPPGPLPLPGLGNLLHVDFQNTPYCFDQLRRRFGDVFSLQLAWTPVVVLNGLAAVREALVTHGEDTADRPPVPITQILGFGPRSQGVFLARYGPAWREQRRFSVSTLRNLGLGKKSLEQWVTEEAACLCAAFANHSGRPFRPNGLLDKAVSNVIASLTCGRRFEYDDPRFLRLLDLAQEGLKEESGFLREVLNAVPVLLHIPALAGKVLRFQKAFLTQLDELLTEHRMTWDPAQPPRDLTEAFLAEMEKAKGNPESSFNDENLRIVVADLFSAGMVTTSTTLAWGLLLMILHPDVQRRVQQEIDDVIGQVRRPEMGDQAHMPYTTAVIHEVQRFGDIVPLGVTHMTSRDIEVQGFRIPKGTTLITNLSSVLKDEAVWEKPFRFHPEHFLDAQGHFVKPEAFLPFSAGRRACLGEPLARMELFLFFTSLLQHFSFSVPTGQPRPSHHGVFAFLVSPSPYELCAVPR
A further series deals with Cytochrome P450 2C19 (Homo sapiens, UniProt P33261). Briefly: Cytochrome panel assay with activity outcomes. Panel member name: p450-cyp2c19 Compounds with AC50 equal or less than 10 uM are considered active. It counts as functional. Particulars: read-out: AC50.
Chain of Cytochrome P450 2C19 (P33261 whole entry): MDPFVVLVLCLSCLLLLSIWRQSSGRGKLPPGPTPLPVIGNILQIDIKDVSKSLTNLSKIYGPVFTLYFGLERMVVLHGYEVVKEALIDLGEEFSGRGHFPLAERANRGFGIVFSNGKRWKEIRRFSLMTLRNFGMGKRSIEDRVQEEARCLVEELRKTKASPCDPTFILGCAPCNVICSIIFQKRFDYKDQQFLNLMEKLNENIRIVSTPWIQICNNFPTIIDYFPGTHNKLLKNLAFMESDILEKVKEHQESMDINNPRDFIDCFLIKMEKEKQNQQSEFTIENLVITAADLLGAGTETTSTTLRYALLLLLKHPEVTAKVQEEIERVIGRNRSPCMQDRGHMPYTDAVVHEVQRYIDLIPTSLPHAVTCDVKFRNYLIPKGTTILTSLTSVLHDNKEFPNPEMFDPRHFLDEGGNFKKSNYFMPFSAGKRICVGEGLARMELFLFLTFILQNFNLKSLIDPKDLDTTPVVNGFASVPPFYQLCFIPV
Series [19] concerns the target T5, Cytochrome P450 2C9.
Another series concerns Vero. Briefly: host cell viability loss, Vero E6 – synthesized analogs, cytotoxicity control for West Nile virus antiviral project, SAR follow-up (AID 2244). As to conditions: Chlorocebus sabaeus. It counts as functional.

Broadly, the IC50 is the midpoint of a concentration-inhibition curve. `O=C(NCCCN1CCOCC1)c1cc(-c2ccc(Br)cc2)on1`: the IC50 in [1] was > 80 µM (inactive).

In general, CC50 refers to the concentration that lowers cell viability or growth by half. The term EC50 denotes the concentration needed to bring the measured effect to its halfway point. Take `CN(c1ccccc1)S(=O)(=O)c1ccc(C(=O)Nc2nnc(-c3ccc(F)cc3)o2)cc1`: the cytotoxic concentration (CC50) in series [2] is 15.6 µM (active); in series [3] it was 17.2 µM (active); in series [5], 7.81 µM (active). The values for the concentration giving a half-maximal response (EC50) (in series [4]; with Streptococcus) were 0.159 µM (active) and 2.93 µM (active), respectively. Moreover, the IC50 in “cells” is > 50 µM (active).

What is called Ki is a dissociation constant, usually derived from enzyme kinetics or from competition with a known ligand. Consider `COc1ccc(-c2nnc(Nc3nc4c(OC)cccc4s3)o2)c(OC)c1`, for which the EC50 is > 59.6 µM (inactive) in the series with HEK293 [6]; > 300 µM (not active) in series [7]; 61.3 µM (active) in [8]; > 150 µM (inconclusive) in [9]; > 38 µM (not active) in series [10]; > 59.6 µM (inactive) in the series with HEK293 [11]. At fMet-Leu-Phe receptor, the Ki is > 66.7 µM (inactive).

In the case of `O=S(=O)(Nc1cnc2ccccc2c1)c1cc(Cl)ccc1F`, the IC50 in series [12] was 4.26 µM (active); in series [13] it was > 100 µM (not active).

Regarding `Cc1ccc(S(=O)(=O)Nc2cnc3ccccc3c2)c(C)c1C`, the results for the IC50 in [12] and in series [13] were > 100 µM (inactive) and > 100 µM (not active), respectively.

What is called AC50 is the midpoint of the concentration-response curve, whichever way the signal moves. Regarding `CCCCC1C(=O)N(c2ccccc2)N(c2ccccc2)C1=O` [PHENYLBUTAZONE], the AC50 at Cytochrome P450 2C9 [14] was 31.6 µM (inconclusive). Besides, at Estrogen receptor, the IC50 is > 50 µM (not active). Further, on fMet-Leu-Phe receptor, the inhibition constant Ki was 5.3 µM (active).

Consider `CC(=O)Nc1ccc(S(=O)(=O)N2CCCc3ccccc32)cc1`, for which the IC50 in series [15] is > 80 µM (inactive).

On to `COc1ccc(C#CC2C=CC(Oc3cc(C)cc(C)c3)C(CO)O2)cc1` (configuration not stated), for which the AC50 at Cytochrome P450 2C9 [14] was 2 µM (inconclusive).

As to `CCC(C)(C)n1nnnc1C(c1ccc(C)cc1)N(Cc1ccco1)Cc1cccs1` (configuration not stated), the 50% effective concentration (EC50) is 6.74 µM (active) in series [16]; > 59.6 µM (inactive) in the series on HEK293 [6]; 2.86 µM (active) in series [17]; > 60 µM (not active) in [18]; > 59.6 µM (inactive) in the series with HEK293 [11].

As to `CCCNC(=O)c1cc2c(C(F)(F)F)nn(C)c2s1`, the AC50 entry on Cytochrome P450 2D6 is “inconclusive”; at Cytochrome P450 2C19 it was 31.6 µM (inconclusive).

Turning to `O=C(O)c1cc(-c2ccccc2O)n[nH]1`, the values for the IC50 in series [12] and in [13] were > 100 µM (inactive) and > 100 µM (not active), respectively.

For the molecule `O=C(O)c1ccc(/C=N\N=C2c3ccccc3-c3ccccc32)cc1`, the half-maximal activity concentration (AC50) result was “inconclusive” on Cytochrome P450 2D6 and 7.94 µM (inconclusive) at Cytochrome P450 2C9 [19].

On to `O=C(CSc1nc2ccccc2c(=O)n1-c1ccc(F)cc1)Nc1ccc2c(c1)OCCO2`, for which the CC50 in the series on Vero is > 40 µM (active).

As for `COc1ccc(-c2csc(NC(=O)c3cccc(Cl)c3)n2)cc1`, the CC50 in the series on Vero is > 40 µM (active).

In the case of `CCCCC#CC1C=CC(Oc2ccc(C(=O)OC)cc2)C(COC(=O)OCC)O1` (configuration not stated), the AC50 at Cytochrome P450 2C9 [14] was 3.16 µM (inconclusive).
